For one assay, the system named is WM1361A and WM1366 cells. The assay can be described thus: Reverse-phase protein array and immunoblot analysis. Format: cell-based, human. The following applies: immunoblot, 24 hours. The method, then: FIG. 15A: Reverse-phase protein array analysis of WM1361A and WM1366 cells. The cells were treated with vehicle (DMSO), either pharmacologic inhibition or genetic depletion of PDPK1 only, MEK inhibitor only and the combinations as indicated. All samples were harvested in three biological independent experiments. Proteins levels were normalized to the mean. Antibodies were limited to those that were differentially expressed (BHFDR <0.05) in at least three of the four comparisons between combination and control samples. FIG. 15B: WM1361A and WM1366 cells were treated with PD0325901 and GSK2334470 as indicated for 24 hours. Cell lysates were applied to immunoblot with indicated antibodies. FIG. 15C: WM1361A and WM1366 parental clones (iCas9) and PDPK1-depleted clones by two individual sgRNAs (KO1 and K02) treated with trametinib as indicated for 24 hours. Cell lysates were applied to immunoblot with indicated antibodies.
WM1361A and WM1366 cells were treated with vehicle control, PDPK1i (GSK2334470), MEKi (trametinib) or combined PDPK1i and MEKi for 48 hours. WM1361A and WM1366 cells were also transfected with ON-target control siRNAs or PDPK1 siRNAs, and then treated with or without trametinib for further 48 hours. Cells were harvested, lysed and analyzed as described in Tibes et al. (Mol Cancer Ther 5, 2512-2521, 2006). […]

Another assay concerns 1014 cells. The assay can be described thus: 1014 cell growth for 7 days monitored by IncuCyte. Type of assay: cell-based, mouse. The following applies: in vitro.
The next assay deals with SK-MEL-30 xenografts. The assay can be described thus: SK-MEL-30 xenograft model in Nu/J mice. Type of assay: in vivo, mouse. The settings on record: trametinib chow and/or GSK2334470 100 mg/kg intraperitoneally every 3 days. The method, then: FIG. 4A-4B, In Nu/J mice, SK-MEL-30 tumor growth (FIG. 4A) represented as the change in volume (mm^3) over time and Kaplan-Meier survival curves (FIG. 4B) were shown from the start of treatment as indicated. Ctrl: control chow+mock injection (n=7), Tram: trametinib chow+mock injection (n=7), G4470: control chow+GSK2334470 injection (n=5), Comb: trametinib chow+GSK2334470 injection (n=7). Mice were injected and tumor volume was monitored every 3 days. Data are represented as the mean±SEM. The dotted line at 1000 mm^3 marks the experimental endpoint. p values were calculated by GraphPad Prism 9.0 with Log-rank (Mantel-Cox) test. n.s., not significant. […]
FIGS. 14A-14B: Sex disparities in SK-MEL-30 xenografts, in accordance with some embodiments. […] Mice were injected and tumor volume was monitored every 3 days. […] The dotted line at 1000 mm^3 marks the experimental endpoint. p values were calculated by GraphPad Prism 9.0 with Log-rank (Mantel-Cox) test. n.s., not significant.
Animal experiments were performed at Thomas Jefferson University in a facility accredited by the Association for the Assessment and Accreditation of Laboratory Animal Care and were approved by the Institutional Animal Care and Use Committee (protocol #1052). […] Mouse weights were monitored once a week or three times per week during drug treatment. […]

With `O=C(NOC[C@H](O)CO)c1ccc(F)c(F)c1Nc1ccc(I)cc1F` [PD0325901, (R)—N-(2,3-dihydroxypropoxy)-3,4-difluoro-2-((2-fluoro-4-iodophenyl)amino)benzamide], the “p-S6, second MEKi with PDPK1i or sgRNA PDPK1 depletion” value in the assay on WM1361A and WM1366 cells was “enhanced reduction”.
As to `CC(=O)Nc1cccc(-n2c(=O)n(C3CC3)c(=O)c3c(Nc4ccc(I)cc4F)n(C)c(=O)c(C)c32)c1` [trametinib, N-(3-(3-cyclopropyl-5-((2-fluoro-4-iodophenyl)amino)-6,8-dimethyl-2,4,7-trioxo-3,4,6,7-tetrahydropyrido[4,3-d]pyrimidin-1(2H)-yl)phenyl)acetamide], the 1014 cell proliferation result in the assay on 1014 cells is “suppressed”. In the assay with SK-MEL-30 xenografts, the tumor growth result is given as “suppressed tumor growth modestly”.

The values are drawn from patent US20240382484A1, “COMPOSITION FOR TREATING, PREVENTING, OR AMELIORATING MELANOMA AND METHOD THEREOF” (Thomas Jefferson University, priority 2021, published 2024).
